Experimental data as given in US20200368288A1, “Hierarchic Neural Microphysiological System for Brain Function and Disorders” (The Trustees of Columbia University in the City of New York, priority 2018, published 2020).
Where two headings read alike, the source gives them in different places.

How the values were obtained:
Setd1a+/− MoNNets = assay: Rescue of Setd1a+/- MoNNet network pathophysiology by LSD1 inhibition, Ca2+ imaging before and after treatment; type: cell-based, mice
Source text: Taking advantage of MoNNet properties, effective in vitro models of SCZ-associated network pathophysiology (SCZ-MoNNets) were developed. SCZ is characterized by psychosis, cognitive dysfunction and a broad spectrum of complex behavioral abnormalities (Clementz et al., 2016). Several recent studies in animal models have investigated the underlying circuit pathophysiology, identifying deficits in activity synchrony and degraded ensembles (Fenelon et al., 2013; Hamm et al., 2017; Hamm et al., 2020; Marissal et al., 2018; Sigurdsson et al., 2010; Zaremba et al., 2017). Therefore, the MoNNet approach provides a well suited system to develop quantitative in vitro models of SCZ-like network function pathophysiology. We developed and characterized MoNNet preparations (SCZ-MoNNets) from two well-studied genetic models—Setd1a+/− and Df(16)A+/−, which recapitulate SCZ-related cognitive and circuitry pathophysiology (Fenelon et al., 2013; Mukai et al., 2019). […] The lower-level deviations in molecular, cellular and synaptic pathways underlying the observed alterations in network states remain to be determined and may be different for each mutation.
Hippocampal neuronal cultures were generated from E17 to E18 embryos by building upon standard cell culture techniques, as follows. Pregnant mice were anesthetized under isoflurane, and euthanized by cervical dislocation. Hippocampus were dissected in Hibernate E (Gibco) iced cold media, and incubated in 0.25% Trypsin-EDTA (Gibco) at 37° C. for […]., followed by […] DNAse I (1 μg/ml; Sigma) incubation at room temperature. Mechanical dissociation of dissected hippocampus was performed by repeated pipetting with a fire-polished glass Pasteur pipet until a homogenous cell suspension was obtained. Cell viability was determined by Trypan Blue exclusion assay. Cell solution was then centrifuged at 150 g for […], and the supernatant was removed. Resulting cell pellet was resuspended in the culture media containing Neurobasal media, 2% B27, 0.5 mM Glutamate and 1% Penicillin/Streptomycin (Gibco). Cells were infected with AAV1.Syn.GCaMP6f.WPRE.SV40 virus ((Chen et al., 2013); Pennsylvania Vector Core, Cat #:AV-1-PV2822). For single spheroid cultures, 2% agarose 96 wells (400 μm diameter) micro-molds were created by using custom casts fabricated by 3D printing (UV-resin; Formlabs 3D printer). The agarose micro molds were equilibrated in the culture medium over a 24 h period prior to plating. […]
Imaging was performed using a wide-field fluorescence microscope (Leica M165FC) equipped with a long-pass GFP filter set (Leica filter set ET GFP M205FA/M165FC), 1.6× Plan Apo objective, 3.2× zoom and sCMOS camera (Hamamatsu ORCA-Flash 4.0). Time-lapse videos were recorded at 30 Hz for ˜4.5 min at 37° C. […]

NNet preparation = assay: Modeling epileptic seizures with NNet (4-AP local injection, picrotoxin addition); type: cell-based
Method: 4-AP, a commonly used seizure inducing compound, was injected in a specific neurosphere of an NNet preparation. […] As shown in the magnified view (top row, third) these peaks are maintained during the time. […] In FIG. 6 the colored maps (bottom) show the spatial progression of the seizure waves in three different bouts (labeled as Epi. Events #1, #2, and #3). The directionality of seizure spread is maintained constant from bottom-left to top-right.

MoNNet neurons = assay: Whole cell electrophysiology recordings in MoNNet, synaptic transmission across spheroids; type: cell-based, mice
Method: Whole cell recordings were performed as described previously (Crabtree et al., 2016; Crabtree et al., 2017), using borosilicate glass pipettes (initial resistance 3-5.5 MS2) which were filled with an intracellular solution containing: K methanesulfonate 125 mM, NaCl 10 mM, CaCl2) 1 mM, MgCl2 1 mM, HEPES 10 mM, EGTA 0.1 mM, MgATP 5 mM, NaGTP 0.5 mM. The pH was adjusted to 7.2 with KOH. Spontaneous synaptic events were assessed at −70 mV (presumptive glutamatergic) and at 0 mV (presumptive GABAergic). Excitatory and inhibitory evoked synaptic responses were assessed as follows. Evoked synaptic responses across spheroid units were elicited with electric stimulation applied with a concentric bipolar stimulating electrode (tip diameter 0.125 mm, FHC, Bowdinham, Me.) positioned on a spheroid >250 μm away from the spheroid containing the recorded neuron. The stimulus was set to 10V, a duration of 100 μs and applied at 10 Hz. […] Neurons were then held in voltage-clamp at 0 mV to assess evoked inhibitory synaptic responses. For assessing neuronal excitability in current-step, action potential firing was recorded in response to incremental (20 pA steps) depolarizing current injections (500 ms duration). Bridge balance of series resistance was employed and recordings with series resistance >20 MΩ were rejected. For current-step assays, resting membrane potential was adjusted to ˜−70 mV by injection of a small standing current. For voltage steps, cells were held at −70 mV, and 10 mV steps were applied ranging from −100 mV to 50 mV. Series resistance-related errors were partially corrected by using 70% prediction and 70% series resistance compensation.

LSD1 = LSD1 (Mus musculus, UniProt Q6ZQ88); conditions: Mukai et al., 2019; cited from earlier work
NNet preparations = assay: Chronic ketamine treatment NNet model of schizophrenia pathophysiology, calcium imaging; conditions: ketamine 10 μM every 24 hours vs saline control; imaging before and 2 days after
[1] = 2-day treatment, TCP 600 nM, ORY-1001 0.6-0.9 nM
[2] = picrotoxin added after 4-AP local injection

Compound: N[C@@H]1C[C@H]1c1ccccc1 (racemic) [TCP, Tranylcypromine]
- ensembles stability (Setd1a+/− MoNNets): partial rescue
- network synchrony (Setd1a+/− MoNNets): partial rescue

Compound: Nc1ccncc1 [4-AP]
- seizure peaks (NNet preparation; local injection in a specific neurosphere): typical high seizure peaks

Compound: N#Cc1cc2[nH]c(=O)c(=O)[nH]c2cc1[N+](=O)[O-] [CNQX]
- evoked inhibitory synaptic transmission across spheroids (MoNNet neurons; CNQX 10 μM blockade of glutamatergic transmission, cell held at 0 mV): robust evoked inhibitory synaptic transmission
- evoked excitatory synaptic responses (MoNNet neurons; CNQX 10 μM washed in with ACSF, voltage-clamp at −70 mV, 10 Hz stimulation of neighboring spheroid): completely ablated
- spontaneous inhibitory synaptic events (MoNNet neurons; CNQX 10 μM, neuron held at 0 mV): reduction

Compound: N[C@H]1CC[C@H](N[C@@H]2C[C@H]2c2ccccc2)CC1 [ORY-1001]
- ensembles stability (Setd1a+/− MoNNets; [1]): partial rescue
- network synchrony (Setd1a+/− MoNNets; [1]): partial rescue
- cellular and behavioral defects (LSD1): effective in partial rescue

Compound: CNC1(c2ccccc2Cl)CCCCC1=O (stereo not drawn) [ketamine]
- correlation among neurosphere units of NNet (NNet preparations): decreased

Compound: picrotoxin
- directionality of seizure spread (NNet preparation; [2]): directionality becomes random
- frequency of number of events (NNet preparation; [2]): increased frequency of number of events
